Starred links: 1 amine or outer side, 2 acyl side, 3 side chain; linkers in the order of their positions; H or OH if unused. Positions of bridges follow the written chain, without caps; N, C: chain ends. Non-standard residues stand in square brackets, D forms with d. Residues, ends and D or L forms follow the SMILES beside them. *: point of attachment. NMeF = CN[C@@H](Cc1ccccc1)C(=O)O; NMeI = CC[C@H](C)[C@H](NC)C(=O)O; NMeβAla = CN(CCC(=O)[*:2])[*:1]; NMeL = CN[C@@H](CC(C)C)C(=O)O; NMeV = CN[C@H](C(=O)O)C(C)C; NMeA = CN[C@@H](C)C(=O)O; Piperidide = C1CCN(*)CC1; dNMeA = CN[C@H](C)C(=O)O; Sar = CNCC(=O)O; tBu = CC(C)(C)*

The record followed here is US9409952B2, “Peptide-compound cyclization method” (Chugai Seiyaku Kabushiki Kaisha, priority 2011, dated 2016).

One data set in a line: PAMPA (parallel artificial membrane permeability assay). The data set is classed as in vitro ADME. The settings on record: PAMPA, pH 6.5. As for the experimental part: 4 μL of a phospholipid-organic solvent solution composed of 10% (w/v) of egg lecithin, 0.5% (w/v) of cholesterol and dodecane (all purchased from Fluka) was added to a Millipore 96-well membrane filter (hydrophobic PVDF (polyvinylidene difluoride), pore size 0.45 microm) (purchased from Millipore Japan) to make an artificial phospholipid membrane.
A DMSO solution containing the compound at a concentration of 10 mM was added in a percentage of 0.5% (v/v) to a 50 mM MOPSO buffer, pH 6.5, containing 5.0% (w/v) of glycocholic acid, and 330 μL of the mixture was added to a 96-well plate made of Teflon (donor plate). The above artificial phospholipid membrane plate was attached onto the donor plate, and 280 μL of a solution obtained by adding DMSO in a percentage of 0.5% (v/v) to a 50 mM MOPSO buffer, pH 6.5, containing 5.0% (w/w) of glycocholic acid was added onto the artificial phospholipid membrane (acceptor plate). These plates were allowed to stand at 37° C. for 18 hours, after which the concentrations of the compound in the solutions in the donor plate and the acceptor plate were measured by LC/MS or LC/UV, and the membrane permeation rate of the compound (Pe) was calculated by the following formulas (1) and (2), where t is the testing time, A is the membrane filter area, VD is the amount of the donor solution, VA is the amount of the acceptor solution, CD,t is the concentration of the compound in the donor solution at the time t, and CA,t is the concentration of the compound in the acceptor solution at the time t.
A general note: PAMPA measures passive passage across an artificial lipid membrane.
Take `CC[C@H](C)[C@H]1C(=O)N[C@@H]([C@@H](C)O)C(=O)N[C@@H](Cc2ccccc2)C(=O)N2CCC[C@H]2C(=O)NCC(=O)N(C)[C@@H](CC(C)C)C(=O)N[C@H](C(=O)N(C)[C@@H](Cc2ccccc2)C(=O)N[C@@H](C)C(=O)N2CCCCC2)CC(=O)N[C@H](C(C)C)C(=O)N[C@@H](Cc2ccccc2)C(=O)N(C)[C@@H](CC(C)C)C(=O)N[C@@H](CC(C)C)C(=O)N1C` [DP-278] ([dV]F[NMeL]L[NMeI]TFPG[NMeL]D[NMeF]A-Piperidide; lactam N-11): the Papp at 18 hours, 50 µM came out at 15 nm/s.

The molecule `CC[C@H](C)[C@@H]1NC(=O)[C@H](C)N(C)C(=O)C[C@@H](C(=O)N(C)[C@@H](Cc2ccccc2)C(=O)N[C@@H](C)C(=O)N2CCCCC2)NC(=O)[C@H](Cc2ccccc2)N(C)C(=O)CN(C)C(=O)[C@H]([C@@H](C)O)NC(=O)[C@H](C)N(C)C(=O)[C@H](C(C)C)N(C)C(=O)[C@H](CC(C)C)N(C)C(=O)[C@H](Cc2ccccc2)NC(=O)[C@H](CC(C)C)N(C)C1=O` [DP-279] ([NMeA]I[NMeL]F[NMeL][NMeV][NMeA]T[Sar][NMeF]D[NMeF]A-Piperidide; lactam N-11) returned a Papp at 18 hours, 50 µM of 150 nm/s.

In the case of `CC[C@H](C)[C@@H]1NC(=O)[C@@H](C)N(C)C(=O)C[C@@H](C(=O)N(C)[C@@H](Cc2ccccc2)C(=O)N[C@@H](C)C(=O)N2CCCCC2)NC(=O)[C@H](Cc2ccccc2)NC(=O)[C@H]([C@@H](C)O)NC(=O)[C@@H]2CCCN2C(=O)CNC(=O)[C@H](CC(C)C)N(C)C(=O)[C@H](Cc2ccccc2)N(C)C(=O)[C@H](CC(C)C)N(C)C(=O)[C@H](CC(C)C)NC1=O` [DP-283] ([dNMeA]IL[NMeL][NMeF][NMeL]GPTFD[NMeF]A-Piperidide; lactam N-11), the Papp at 18 hours, 50 µM amounted to 15 nm/s.

Consider `CC[C@H](C)[C@@H]1NC(=O)[C@H](Cc2ccccc2)N(C)C(=O)[C@H]([C@@H](C)O)NC(=O)[C@H](C)NC(=O)C[C@@H](C(=O)N(C)[C@@H](Cc2ccccc2)C(=O)N(C)[C@@H](Cc2ccccc2)C(=O)N[C@@H](C)C(=O)N2CCCCC2)NC(=O)[C@H](CC(C)C)N(C)C(=O)[C@H](CC(C)C)N(C)C(=O)[C@H](Cc2ccccc2)N(C)C(=O)[C@H](CC(C)C)N(C)C(=O)[C@H](C)N(C)C1=O` [DP-286] (AT[NMeF]I[NMeA][NMeL][NMeF][NMeL][NMeL]D[NMeF][NMeF]A-Piperidide; lactam N-10), for which the Papp at 18 hours, 50 µM was found to be 2.4 nm/s.

Molecule `CC(C)C[C@H]1C(=O)N(C)[C@@H](C(C)C)C(=O)N[C@@H](Cc2ccccc2)C(=O)N[C@H](C(=O)N(C)[C@@H](Cc2ccccc2)C(=O)N(C)[C@@H](Cc2ccccc2)C(=O)N[C@@H](C)C(=O)N2CCCCC2)CC(=O)N[C@@H](C)C(=O)N[C@@H](C(C)C)C(=O)N(C)[C@@H](CC(C)C)C(=O)N[C@@H]([C@@H](C)O)C(=O)N(C)[C@@H](Cc2ccccc2)C(=O)NCC(=O)N1C` [DP-287] (AV[NMeL]T[NMeF]G[NMeL][NMeV]FD[NMeF][NMeF]A-Piperidide; lactam N-10) registered a Papp at 18 hours, 50 µM of 14 nm/s.

For the molecule `CC[C@H](C)[C@@H]1NC(=O)[C@H](Cc2ccccc2)N(C)C(=O)[C@H]([C@@H](C)O)NC(=O)[C@@H](C)NC(=O)C[C@@H](C(=O)N(C)[C@@H](Cc2ccccc2)C(=O)N(C)[C@@H](Cc2ccccc2)C(=O)N[C@@H](C)C(=O)N2CCCCC2)NC(=O)[C@H](CC(C)C)N(C)C(=O)[C@H](CC(C)C)N(C)C(=O)[C@H](Cc2ccccc2)N(C)C(=O)[C@H](CC(C)C)N(C)C(=O)[C@H](C)N(C)C1=O` [DP-289] ([dA]T[NMeF]I[NMeA][NMeL][NMeF][NMeL][NMeL]D[NMeF][NMeF]A-Piperidide; lactam N-10), the Papp at 18 hours, 50 µM amounted to 1.4 nm/s.

Take `CC[C@H](C)[C@@H]1NC(=O)[C@H](CC(C)C)N(C)C(=O)[C@H](C)N(C)C(=O)[C@H]([C@@H](C)O)NC(=O)[C@H](CC(C)C)N(C)C(=O)[C@H](Cc2ccccc2)N(C)C(=O)[C@@H](C(C)C)NC(=O)C[C@@H](C(=O)N(C)[C@@H](Cc2ccccc2)C(=O)N[C@@H](C)C(=O)N2CCCCC2)NC(=O)[C@H](C(C)C)N(C)C1=O` [DP-308] ([dV][NMeF][NMeL]T[NMeA][NMeL]I[NMeV]D[NMeF]A-Piperidide; lactam N-9): the Papp at 18 hours, 50 µM was 270 nm/s.

The molecule `CC(C)C[C@H]1C(=O)N(C)[C@@H](Cc2ccccc2)C(=O)NCC(=O)N(C)[C@@H](Cc2ccccc2)C(=O)N(C)[C@@H](C)C(=O)N[C@@H]([C@@H](C)O)C(=O)N[C@H](C(=O)N(C)[C@@H](Cc2ccccc2)C(=O)N(C)[C@@H](Cc2ccccc2)C(=O)N[C@@H](C)C(=O)N2CCCCC2)CC(=O)N(C)CCC(=O)N[C@@H](C(C)C)C(=O)N1C` [DP-312] ([NMeβAla]V[NMeL][NMeF]G[NMeF][NMeA]TD[NMeF][NMeF]A-Piperidide; lactam N-9) had a Papp at 18 hours, 50 µM of 470 nm/s.

Staying with this data set, now noted: PAMPA; membrane permeation rate (Pe); 50 mM MOPSO buffer pH 6.5 with 5.0% glycocholic acid, 37° C., 18 hours; read-out: iPAMPA Pe.
Take `CC(C)C[C@H]1C(=O)N[C@H](C(=O)N(C)[C@@H](Cc2ccccc2)C(=O)N(C)[C@@H](Cc2ccccc2)C(=O)N[C@@H](C)C(=O)N2CCCCC2)CC(=O)N(C)[C@@H](C)C(=O)N(C)[C@@H](C)C(=O)N(C)[C@@H](Cc2ccccc2)C(=O)N[C@@H]([C@@H](C)O)C(=O)N(C)[C@@H](C)C(=O)N(C)[C@@H](CC(C)C)C(=O)N(C)[C@@H](CC(C)C)C(=O)N[C@@H](C(C)C)C(=O)N1C` [DP-206] ([NMeA][NMeA][NMeF]T[NMeA][NMeL][NMeL]V[NMeL]D[NMeF][NMeF]A-Piperidide; lactam N-10): the Papp at 18 hours, 50 µM came out at 90 nm/s.

In the case of `CC(C)C[C@H]1C(=O)N[C@H](C(=O)N(C)[C@@H](Cc2ccccc2)C(=O)N(C)[C@@H](Cc2ccccc2)C(=O)N[C@@H](C)C(=O)N2CCCCC2)CC(=O)N[C@H](C(C)C)C(=O)N(C)[C@@H](Cc2ccccc2)C(=O)N(C)[C@@H](CC(C)C)C(=O)N[C@@H]([C@@H](C)O)C(=O)N(C)[C@@H](C)C(=O)N(C)[C@@H](CC(C)C)C(=O)N[C@@H](C(C)C)C(=O)N1C` [DP-210] ([dV][NMeF][NMeL]T[NMeA][NMeL]V[NMeL]D[NMeF][NMeF]A-Piperidide; lactam N-9), the Papp at 18 hours, 50 µM came to 18 nm/s.

Regarding `CC(C)C[C@H]1C(=O)N(C)[C@@H](C)C(=O)N[C@@H](COC(C)(C)C)C(=O)N(C)[C@@H](C(C)C)C(=O)N[C@H](C(=O)N2CCCCC2)CC(=O)N(C)[C@@H](C)C(=O)N(C)[C@@H](Cc2ccccc2)C(=O)N[C@@H](C)C(=O)N(C)[C@@H](C)C(=O)N[C@@H](Cc2ccccc2)C(=O)N[C@@H]([C@@H](C)O)C(=O)N(C)[C@@H](C)C(=O)N1C` [DP-317] ([NMeA][NMeF]A[NMeA]FT[NMeA][NMeL][NMeA]S(tBu)[NMeV]D-Piperidide; lactam N-12), the Papp at 18 hours, 50 µM is 200 nm/s.

Turning to `CC(C)C[C@@H]1NC(=O)[C@H](Cc2ccccc2)N(C)C(=O)CCN(C)C(=O)C[C@@H](C(=O)N2CCCCC2)NC(=O)[C@H](Cc2ccccc2)N(C)C(=O)[C@H](C)N(C)C(=O)[C@H]([C@@H](C)O)NC(=O)CN(C)C(=O)[C@H](C(C)C)N(C)C(=O)[C@H](C)NC(=O)[C@H](C(C)C)N(C)C(=O)[C@H](CC(C)C)N(C)C1=O` [DP-318] ([NMeβAla][NMeF]L[NMeL][NMeV]A[NMeV][Sar]T[NMeA][NMeF]D-Piperidide; lactam N-12), the Papp at 18 hours, 50 µM amounted to 260 nm/s.

For the molecule `CC[C@H](C)[C@@H]1NC(=O)[C@H](Cc2ccccc2)N(C)C(=O)[C@H](CC(C)C)N(C)C(=O)[C@H](Cc2ccccc2)NC(=O)[C@H]([C@@H](C)O)NC(=O)[C@H](CC(C)C)N(C)C(=O)[C@H](CC(C)C)NC(=O)CCN(C)C(=O)C[C@@H](C(=O)N2CCCCC2)NC(=O)[C@H](CC(C)C)N(C)C1=O` [DP-336] ([NMeβAla]L[NMeL]TF[NMeL][NMeF]I[NMeL]D-Piperidide; lactam N-10), the Papp at 18 hours, 50 µM worked out at 350 nm/s.

For the molecule `CC(C)C[C@@H]1NC(=O)[C@@H](C)N(C)C(=O)C[C@@H](C(=O)N(C)[C@@H](Cc2ccccc2)C(=O)N[C@@H](C)C(=O)N2CCCCC2)NC(=O)[C@H](Cc2ccccc2)N(C)C(=O)[C@H](CC(C)C)N(C)C(=O)[C@H](Cc2ccccc2)NC(=O)[C@H]([C@@H](C)O)NC(=O)[C@H](CC(C)C)N(C)C(=O)[C@H](CC(C)C)N(C)C1=O` [DP-359] ([dNMeA]L[NMeL][NMeL]TF[NMeL][NMeF]D[NMeF]A-Piperidide; lactam N-9), the Papp at 18 hours, 50 µM was 430 nm/s.

For `CC(C)C[C@H]1C(=O)N(C)[C@@H](Cc2ccccc2)C(=O)N[C@@H]([C@@H](C)O)C(=O)N[C@@H](C)C(=O)N(C)[C@@H](C)C(=O)N[C@H](C(=O)N(C)[C@@H](Cc2ccccc2)C(=O)N[C@@H](C)C(=O)N2CCCCC2)CC(=O)N(C)CCC(=O)N(C)[C@@H](Cc2ccccc2)C(=O)N(C)[C@@H](C(C)C)C(=O)N(C)[C@@H](C)C(=O)N[C@@H](C)C(=O)N1C` [DP-360] ([NMeβAla][NMeF][NMeV][NMeA]A[NMeL][NMeF]TA[NMeA]D[NMeF]A-Piperidide; lactam N-11), the Papp at 18 hours, 50 µM is 73 nm/s.

With `CC[C@H](C)[C@@H]1NC(=O)[C@H](CC(C)C)N(C)C(=O)[C@H](C)N(C)C(=O)[C@H](C)N(C)C(=O)CCN(C)C(=O)C[C@@H](C(=O)N(C)[C@@H](Cc2ccccc2)C(=O)N[C@@H](C)C(=O)N2CCCCC2)NC(=O)[C@H](Cc2ccccc2)N(C)C(=O)[C@H](C)N(C)C(=O)[C@H]([C@@H](C)O)NC(=O)[C@H](Cc2ccccc2)N(C)C(=O)[C@H](C)N(C)C1=O` [DP-362] ([NMeβAla][NMeA][NMeA][NMeL]I[NMeA][NMeF]T[NMeA][NMeF]D[NMeF]A-Piperidide; lactam N-11), the Papp at 18 hours, 50 µM was found to be 270 nm/s.
